The source of these data is a melting point compilation (Tetko et al.; mined from patent text by program, amines drawn as free bases though some values may be those of a salt).

In general, melting point refers to the temperature of the solid-liquid transition. For the compound `COCOc1ccc(N2C(=O)[C@@H](N=[N+]=[N-])[C@H]2C=Cc2ccccc2)cc1` (relative stereo), the melting point was in the range of 111 to 112 °C.

Compound `CC(=O)NC(C)c1c[nH]c(C)n1` (centres undefined) returned a melting point of 125 to 128 °C. `CCOc1ncc(C(C)=O)cc1C(=O)Nc1c(C(N)=O)nn(CC2CC2)c1CC` displayed a melting point of 238 to 240 °C. The value for `Brc1ccn2nc(-c3ccccc3)nc2c1` was 189 to 191 °C; that for `COc1ccc(Cl)c(Oc2c(CO)nc(N3CCOCC3)nc2NS(=O)(=O)c2ccc(C(C)C)cn2)c1` was 105 °C; that for `Cc1cc(I)cc(C(=O)O)c1N` was 214 °C.

With `CCC(=O)C(Cc1cc(C#N)cc(C#N)c1)C(=O)CC`, the melting point fell in the range of 67 to 69 °C. The value for `O=C1NC(=O)c2c1c(-c1ccccc1Cl)cc1c2c2cc(O)ccc2n1CCS(=O)(=O)c1ncn[nH]1` was 301 to 304 °C; that for `CCOC(N)=C(C#N)C#N` was 233 °C; that for `CCOC(=O)C=Cc1c(OCc2ccc(OCc3nc(-c4ccccc4)oc3C)cc2)ccc2ccccc12` was 73 to 74 °C. With `CCCCc1nc(Cl)c(C=O)n1Cc1ccc2oc(-c3ccccc3-c3nnn[nH]3)c(Br)c2c1` the figure was 122 to 124 °C; with `Cc1c(Br)nc(Br)c(=O)n1C`, 119 to 120 °C.

For the compound `CCn1ncc2c3c(NCc4ccc(OC)c(Cl)c4)nnc(N4CCC(O)CC4)c3cnc21`, the melting point is 109 to 110 °C. With `COc1ccc([C@H]2N[C@H](c3ccc4c(c3)OCO4)c3ccccc32)cc1` (racemic) the figure was 123 to 125 °C.

As for `CNCC1Cc2cc(F)cc(-c3ccccc3C)c2O1` (centres undefined), the melting point lay in the range of 123 to 124 °C. The value for `CCOC(=O)c1c(C)cc2c(c1C)c(=O)n(-c1ccccc1Cl)c(=O)n2CC(=O)NCCN(CC)CC` was 193 to 194 °C. With `CCOc1ncnc(OCC)c1NC(N)=S` the figure was 212 °C; with `CCOC(=O)C1(C(=O)OCC)N(c2ccccc2)C(=O)CC1(C)O` (centres undefined), 98 to 99 °C. The value for `Cc1c(CC(=O)N[C@@H](CO[N+](=O)[O-])C(=O)O)cc(-c2ccc(S(C)(=O)=O)cc2)n1-c1ccc(F)cc1` was 109 °C; that for `O=C(O)CCCOc1ccc2cc(-c3ccc4ccc(Cl)cc4n3)oc2c1` was 200 to 201 °C; that for `O=c1[nH]c2ccsc2c(=O)n1CCN1CCN(c2ccccc2Cl)CC1` was 193 to 196 °C. In turn, `COc1nc(C)cnc1N(C(=O)OCC(C)C)S(=O)(=O)c1cccnc1-c1ccc([Si](C)(C)C)cc1` yielded a melting point of 132 to 134 °C. With `CCCCCCCCCCCCCCCCOCC(CF)COC(c1ccccc1)(c1ccccc1)c1ccccc1` (centres undefined) the figure was 32 °C. Regarding `COc1cc(Nc2ccccn2)ccc1C(N)=O`, the melting point is 226 to 227 °C. The value for `COc1ccc(OCC(O)CNC(C)(C)C)c(C)c1C` (centres undefined) was 73 to 75 °C; that for `OCCOc1cncc(Cl)c1` was 38 to 40 °C; that for `Cn1ncc2c(C(F)F)cc(Cl)nc21` was 105 °C. With `CCCCn1nc(SC2CCC(CC(=O)O)CC2)c(C(=O)O)c1Cc1cc2c(cc1Cl)OCO2` (centres undefined) the figure was 100 °C; with `COC1=C(OC)C(=O)C2=C(CC(CCCCCCCC(=O)O)(c3ccccc3)C2)C1=O`, 63 to 66 °C; with `CC(C)=CCc1cc2cc(-c3cc(O)cc(O)c3)oc2cc1O`, 183 to 184 °C. The value for `CCC1COc2c(Cc3ccc(C(C)C)cc3)c(C)c(NC(=O)CC(C)(C)C)c(C)c21` (centres undefined) was 156 to 157 °C; that for `O=C(Nc1ccc(Cl)cc1)NS(=O)(=O)c1ccc2c(c1)CCCC2` was 163 to 165 °C. In turn, `OC1OC2C(Br)C3CC1C2C3` (centres undefined) came in with a melting point of 61 °C. The value for `CC1(C)CC(=O)c2c(Cc3ccccc3)cn(-c3ccccn3)c2C1` was 111 to 113 °C; that for `CCN(Cc1cc(Br)ccc1NCc1ccccc1)c1ccc(C(=O)O)nn1` was 176 °C. With `O=Cc1ccc(OCCN2OCc3ccccc3C2=O)cc1` the figure was 102 °C. The value for `CC(=O)NC[C@H]1CN(c2ccc3c(c2)C[C@@H](C)N3C(=O)COC(C)=O)C(=O)O1` was 186 to 187 °C; that for `CCCCC(Cc1cccnc1)(C(=O)O)S(=O)(=O)c1ccc(OC)cc1` (centres undefined) was 65 °C; that for `O=c1nc(NCCCOc2cc(CN3CCCCC3)ccn2)c2ccccc2[nH]1` was 189 to 192 °C.

`O=C(O)CNc1cc(Cl)ccc1C(=O)O` showed a melting point of 231 °C. The value for `Cc1c(C)c2ccc(OCC(O)CN3CCC(NC(=O)c4ccccc4)CC3)cc2oc1=O` (centres undefined) was 178 to 180 °C.

The compound `COc1c(N)cc(Cl)c(OC)c1[N+](=O)[O-]` gave a melting point of 68 °C. The value for `CCCNC(=O)n1c(Cc2ccccc2)noc1=O` was 74 °C. `Cc1ccccc1-c1nc(-c2ccccc2C)nc(-c2ccccc2C)n1` yielded a melting point of 110 °C. On to `CCCCc1nc(SCCOC(C)=O)c(C(=O)OCC)[nH]1`, for which the melting point came to 68 °C. With `Cc1cc(C(N)=O)ncc1C(c1c(F)ccc(F)c1F)S(=O)(=O)CCC(Cl)(Cl)Cl` (centres undefined) the figure was 173 to 175 °C; with `O=[PH]1Cc2ccc3ccccc3c2-c2c(ccc3ccccc23)C1`, 242 to 246 °C. With `O=c1[nH]c2cc(C(F)(F)F)c(Cl)c(Cl)c2[nH]c1=O` the figure was above 250 °C; with `CCOC(=O)C(Cc1ccccc1)NC(=O)COc1ccc(C2=NNC(=O)NC2)cc1C` (centres undefined), 148 to 150 °C; with `COc1ccc(/C=C/CN2CCN(C3c4ccccc4CCc4ncccc43)CC2)cc1[N+](=O)[O-]` (centres undefined), 159 to 161 °C. `CCOC(=O)c1cnc2c(SSc3ccccc3[N+](=O)[O-])cccn2c1=O` gave a melting point of 191 to 193 °C.

`COc1nc(C)c2c(c1C=O)CCCC2O` (centres undefined) displayed a melting point of 107 °C. `CCCc1cn(C)cc(-c2cccc(C(F)(F)F)c2)c1=O` showed a melting point of 45 to 47 °C. With `O=C(O)Cc1c(Oc2ccc3c(c2)OCO3)cccc1Oc1ccc2c(c1)OCO2` the figure was 176 to 177 °C.

As to `CC(C)(NC(=O)OCc1ccccc1)C(=O)NCCCc1ccccc1`, the melting point lay within 84 to 92 °C.

Turning to `COc1cc(CCC(=O)c2c(OC)cc(OC)c(CCC(C)C)c2OCC(=O)O)ccc1O`, the melting point lay in the range of 87 to 88 °C. With `COc1ccc(CN(C)CCOc2ccc(NC(=O)c3cccc4c(=O)cc(-c5ccccc5)[nH]c34)cc2)cc1OC` the figure was 175 °C; with `CCOC(=O)c1ccc(N)c(I)c1`, 71 to 74 °C; with `COc1ccc2c(c1)C(=O)OCN2c1ccccc1`, 99.5 to 101 °C. The value for `COC(=O)C1(CCCN2CCN(c3ccccc3)CC2)Sc2ccccc2CCC1O` (centres undefined) was 152 to 154 °C; that for `Cc1c(Br)c(N2CC[C@H](N(C)C)C2)c2oc(C3CC3)nc2c1C#N` was 82 to 86 °C; that for `Cc1c(C(F)(F)F)nc[nH]c1=O` was 175 to 176 °C. The value for `CCOC(=O)N1CCN(c2ccc(Cl)nn2)CC1` was 124 °C; that for `O=Cc1ccc2c(c1)c1cc(C=O)ccc1n2Cc1ccccc1` was 222 to 224 °C.
